These are literature values, as cited in paper PMC8344021, “Discovery of Small Molecule Bak Activator for Lung Cancer Therapy” (Theranostics, 2021).

For one data set, the system named is SCLC. The arrangement: method as in PMID 21282543, PMID 22496272. The settings on record: single-agent, SCLC patients; ref [16], [17]; cited from earlier work.
The test system of data set [1] is chronic lymphocytic leukemia (CLL). The arrangement: method as in PMID 29562156, PMID 31205643. To be noted: venetoclax monotherapy or venetoclax/rituximab combination; ref [11], [12]; cited from earlier work.

With `CC1(C)CCC(c2ccc(Cl)cc2)=C(CN2CCN(c3ccc(C(=O)NS(=O)(=O)c4ccc(N[C@H](CCN5CCOCC5)CSc5ccccc5)c(S(=O)(=O)C(F)(F)F)c4)cc3)CC2)C1` [navitoclax], the clinical efficacy entry in the data set on SCLC is recorded as “limited efficacy”.

On to `CC1(C)CCC(CN2CCN(c3ccc(C(=O)NS(=O)(=O)c4ccc(NCC5CCOCC5)c([N+](=O)[O-])c4)c(Oc4cnc5[nH]ccc5c4)c3)CC2)=C(c2ccc(Cl)cc2)C1` [venetoclax], for which the “proportion of patients who develop venetoclax failure” value in data set [1] is 15-25%.
